Values quoted from earlier work in patent EP1860434A1, “Method for analysing substance mixtures” (Shimadzu Europa GmbH, priority 2006, dated 2007).

Conditions: listed for the six substances of the Performance Test Probe; no measurement described

In order of rising pKa-Wert:
1. 2-Ethyliden-1.5-dimethyl-3.3-diphenyl-pyrrolidin  9.6
2. CC(N)Cc1ccc2c(c1)OCO2 (stereo not drawn) [Methylendioxyamphetamin (MDA), Methylendioxyamphetamin]  9.7
3. CN(C)C(=O)Oc1cccc([N+](C)(C)C)c1 [Neostigminbromid]  12
